Test results as given in ChEMBL document CHEMBL1140260, “Synthesis and SAR of diazepine and thiazepine TACE and MMP inhibitors” (Bioorg Med Chem Lett, 2005).

Legend:
[1] = molecular target: Disintegrin and metalloproteinase domain-containing protein 17 (Homo sapiens, UniProt P78536); assay: Inhibitory concentration against TNF-alpha converting enzyme at 1 uM
Mus musculus [2] = assay: Percent inhibition ofTNF-alpha release 1 hr after oral dosing at 25 mpk; format: functional
THP-1 [3] = assay: Percent inhibition against LPS stimulated THP-1 cellular assay at 3 uM; format: functional; conditions: Homo sapiens
Interstitial collagenase = molecular target: T1, Interstitial collagenase (Homo sapiens, UniProt P03956); assay: (§1) Inhibitory concentration against matrix metalloprotease-1 at 1 uM
T1 sequence (P03956 whole entry): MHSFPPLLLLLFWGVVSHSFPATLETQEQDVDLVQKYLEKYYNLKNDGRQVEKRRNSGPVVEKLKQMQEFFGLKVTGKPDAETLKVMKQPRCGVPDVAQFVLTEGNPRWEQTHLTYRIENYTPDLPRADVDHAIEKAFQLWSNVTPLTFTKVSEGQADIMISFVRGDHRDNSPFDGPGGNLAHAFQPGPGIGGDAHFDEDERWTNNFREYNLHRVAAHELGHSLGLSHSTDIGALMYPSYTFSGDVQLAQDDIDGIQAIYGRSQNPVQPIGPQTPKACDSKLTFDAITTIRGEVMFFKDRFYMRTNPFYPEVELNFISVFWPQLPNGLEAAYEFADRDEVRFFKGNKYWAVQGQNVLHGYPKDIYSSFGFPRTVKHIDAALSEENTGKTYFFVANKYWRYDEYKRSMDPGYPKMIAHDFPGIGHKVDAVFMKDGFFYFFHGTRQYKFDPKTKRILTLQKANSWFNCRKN

Collagenase 3 = Collagenase 3 (Homo sapiens, UniProt P45452)
Description: Inhibitory concentration against Matrix metalloprotease-13 at 1 uM

[4] = molecular target: T2, Interstitial collagenase (Homo sapiens) (UniProt P03956); assay: Percent inhibition against matrix metalloprotease-1 at 1 uM
T2 sequence (whole entry): T1 sequence (P03956 whole entry)

THP-1 [5] = assay: Percent inhibition against LPS stimulated THP-1 cell assay at 3 uM; format: functional; conditions: Homo sapiens
[6] = molecular target: T2, Interstitial collagenase (Homo sapiens); assay: as §1
Mus musculus [7] = assay: Percent inhibition ofTNF-alpha release 1 hr after oral dosing at 50 mpk; format: functional
Mus musculus [8] = assay: Percent inhibition ofTNF-alpha release 6 hr after oral dosing at 50 mpk; format: functional
THP-1 [9] = assay: Percent inhibition against LPS stimulated THP-1 cellular assay at 1 uM; format: functional; conditions: Homo sapiens
Mus musculus [10] = assay: Oral bioavailability of compound in mice; format: functional, organism-based
Mus musculus [11] = species on record: Mus musculus; assay: Plasma clearance of compound in mice plasma; format: functional, organism-based
Mus musculus [12] = assay: Percent reduction induced by compound in the mouse collagen induced arthritis model after 35 days of peroral dosing at 20 mpk, twice daily; format: functional
Mus musculus [13] = assay: Half life of compound in mice after p.o. administration at 50 mg/kg
[14] = Volume of distribution of compound in mice; format: ADME, organism-based; conditions: mouse, in vivo
Mus musculus [15] = assay: Half life of compound in mice after i.p. administration at 10 mg/kg; format: functional, organism-based; design: dose 10 mg/kg
Mus musculus [16] = assay: Half life of compound in mice after i.v. administration at 5 mg/kg; format: functional, organism-based; design: dose 5 mg/kg

Chain of Disintegrin and metalloproteinase domain-containing protein 17 (P78536 whole entry, the tested form may be a part): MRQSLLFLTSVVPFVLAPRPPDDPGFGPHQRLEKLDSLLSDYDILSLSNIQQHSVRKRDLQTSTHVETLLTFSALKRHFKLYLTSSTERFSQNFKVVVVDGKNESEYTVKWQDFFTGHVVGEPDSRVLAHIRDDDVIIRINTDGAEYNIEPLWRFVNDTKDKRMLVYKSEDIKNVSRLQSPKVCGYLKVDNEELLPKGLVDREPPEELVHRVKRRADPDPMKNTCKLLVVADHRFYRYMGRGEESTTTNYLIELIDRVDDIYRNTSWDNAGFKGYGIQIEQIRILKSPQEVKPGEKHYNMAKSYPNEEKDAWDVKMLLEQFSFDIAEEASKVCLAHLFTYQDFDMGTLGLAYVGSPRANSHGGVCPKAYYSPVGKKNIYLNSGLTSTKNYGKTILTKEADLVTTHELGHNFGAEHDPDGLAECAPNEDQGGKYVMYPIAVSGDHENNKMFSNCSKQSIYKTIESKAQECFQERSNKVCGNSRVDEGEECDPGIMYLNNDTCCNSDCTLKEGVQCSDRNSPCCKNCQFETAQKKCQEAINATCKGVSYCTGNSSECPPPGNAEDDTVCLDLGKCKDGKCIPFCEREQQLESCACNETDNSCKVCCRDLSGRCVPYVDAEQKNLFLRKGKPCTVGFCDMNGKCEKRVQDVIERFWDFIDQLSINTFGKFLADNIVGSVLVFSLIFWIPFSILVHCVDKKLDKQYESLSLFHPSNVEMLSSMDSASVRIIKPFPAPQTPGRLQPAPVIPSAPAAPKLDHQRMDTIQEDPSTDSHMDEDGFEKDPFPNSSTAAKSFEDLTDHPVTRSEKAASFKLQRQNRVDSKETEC

| SMILES | IC50 [1] [nM] | inhibition at 3 µM (THP-1 [3]) [%] | IC50 (Interstitial collagenase) [nM] | IC50 (Collagenase 3) [nM] | inhibition in vivo at 50 mg/kg (Mus musculus [7]) [%] | other results |
| --- | --- | --- | --- | --- | --- | --- |
| CC#CCOc1ccc(S(=O)(=O)N2CCCN(C(=O)CNC(=O)OC(C)(C)C)CC2C(=O)NO)cc1 (stereo not drawn) | 7 | 71 | 4580 | 446 |  | inhibition in vivo at 25 mg/kg (Mus musculus [2]): 68% |
| CC#CCOc1ccc(S(=O)(=O)N2CCCN(S(=O)(=O)c3ccccc3)CC2C(=O)NO)cc1 (stereo not drawn) | 68 | 62 |  | 88 |  | inhibition [4]: 39%; inhibition in vivo at 25 mg/kg (Mus musculus [2]): 46% |
| CC#CCOc1ccc(S(=O)(=O)N2CCCN(C(=O)c3cccs3)CC2C(=O)NO)cc1 (stereo not drawn) | 10 | 41 |  | 142 |  |  |
| CC#CCOc1ccc(S(=O)(=O)N2CCCN(C(=O)OC(C)(C)C)CC2C(=O)NO)cc1 (stereo not drawn) | 35 |  |  | 363 |  | inhibition [4]: 26%; inhibition at 3 µM (THP-1 [5]): 13% |
| CC#CCOc1ccc(S(=O)(=O)N2CCCN(C)CC2C(=O)NO)cc1 (stereo not drawn) | 24 | 42 |  | 180 |  | inhibition [6]: 36% |
| CC#CCOc1ccc(S(=O)(=O)N2CCN(C(=O)OC(C)(C)C)CCC2C(=O)NO)cc1 (stereo not drawn) |  |  |  |  | 88 | inhibition in vivo at 50 mg/kg (Mus musculus [8]): 43% |
| CC#CCOc1ccc(S(=O)(=O)N2CCCN(S(=O)(=O)CCC)CC2C(=O)NO)cc1 (stereo not drawn) | 30 | 74 | 1140 | 140 |  | inhibition in vivo at 25 mg/kg (Mus musculus [2]): 0% |
| CC#CCOc1ccc(S(=O)(=O)N2CCCN(S(C)(=O)=O)CC2C(=O)NO)cc1 (stereo not drawn) | 5 | 71 |  | 128 |  | inhibition [4]: 40%; inhibition in vivo at 25 mg/kg (Mus musculus [2]): 35% |
| CC#CCOc1ccc(S(=O)(=O)N2CCS(=O)(=O)CCC2C(=O)NO)cc1 (stereo not drawn) | 19 | 92 | 114 | 8 | 94 |  |
| CC#CCOc1ccc(S(=O)(=O)N2CCN(C(=O)CC)CCC2C(=O)NO)cc1 (stereo not drawn) | 19 |  | 207 | 20 |  | inhibition at 1 µM (THP-1 [9]): 63% |
| CC#CCOc1ccc(S(=O)(=O)N2CCCN(C(=O)NCCCCCC)CC2C(=O)NO)cc1 (stereo not drawn) | 14 | 36 |  | 307 |  | inhibition [4]: 34% |
| CC#CCOc1ccc(S(=O)(=O)N2CCCNCC2C(=O)NO)cc1 (stereo not drawn) | 11 | 43 | 576 | 225 |  | inhibition in vivo at 25 mg/kg (Mus musculus [2]): 4% |
| CC#CCOc1ccc(S(=O)(=O)N2CCCN(C(=O)CN)CC2C(=O)NO)cc1 (stereo not drawn) | 12 | 62 | 3030 | 1060 |  |  |
| CC#CCOc1ccc(S(=O)(=O)N2CCN(C)CCC2C(=O)NO)cc1 (stereo not drawn) |  |  |  |  | 32 | inhibition in vivo at 50 mg/kg (Mus musculus [8]): 39% |
| CC#CCOc1ccc(S(=O)(=O)N2CCCN(Cc3ccccc3)CC2C(=O)NO)cc1 (stereo not drawn) | 61 | 41 | 212 | 52 |  |  |
| CC#CCOc1ccc(S(=O)(=O)N2CCN(C(=O)COC)CCC2C(=O)NO)cc1 (stereo not drawn) | 15 | 79 | 277 | 31 |  |  |
| CC#CCOc1ccc(S(=O)(=O)N2CCSCCC2C(=O)NO)cc1 (stereo not drawn) |  |  | 171 | 11 | 70 | inhibition in vivo at 50 mg/kg (Mus musculus [8]): 41% |
| CC#CCOc1ccc(S(=O)(=O)N2CCN(Cc3ccccc3)CCC2C(=O)NO)cc1 (stereo not drawn) |  |  |  |  | 17 | inhibition in vivo at 50 mg/kg (Mus musculus [8]): 0% |
| CC#CCOc1ccc(S(=O)(=O)N2CCN(CC)CCC2C(=O)NO)cc1 (stereo not drawn) | 37 |  | 285 | 17 |  | inhibition at 1 µM (THP-1 [9]): 57% |
| CC#CCOc1ccc(S(=O)(=O)N2CCCN(C(=O)CCCN(C)C)CC2C(=O)NO)cc1 (stereo not drawn) | 75 | 33 |  | 395 |  | inhibition [4]: 19% |
| CC#CCOc1ccc(S(=O)(=O)N2CCNCCC2C(=O)NO)cc1 (stereo not drawn) |  |  |  | 32 | 97 | bioavailability (Mus musculus [10]): 18%; CL (mL.min-1.kg-1) (Mus musculus [11]): 64.3; Reduction (Mus musculus [12]): 56%; T1/2 (Mus musculus [13]): 0.86 h; inhibition in vivo at 50 mg/kg (Mus musculus [8]): 62%; Vd [14]: 2.49 L/kg; T1/2 (Mus musculus [15]): 2.64 h; T1/2 (Mus musculus [16]): 1.43 h |
| CC#CCOc1ccc(S(=O)(=O)N2CCN(C(=O)c3ccccc3)CCC2C(=O)NO)cc1 (stereo not drawn) |  |  |  |  | 35 | inhibition in vivo at 50 mg/kg (Mus musculus [8]): 0% |
| CC#CCOc1ccc(S(=O)(=O)N2CCCS(=O)(=O)CC2C(=O)NO)cc1 (stereo not drawn) | 28 |  | 334 | 311 | 77 |  |
| CC#CCOc1ccc(S(=O)(=O)N2CCCN(C(C)=O)CC2C(=O)NO)cc1 (stereo not drawn) | 4 | 74 |  | 305 |  | inhibition in vivo at 25 mg/kg (Mus musculus [2]): 10% |
| CC#CCOc1ccc(S(=O)(=O)N2CCCSCC2C(=O)NO)cc1 (stereo not drawn) | 20 | 80 | 408 | 36 | 24 |  |
| CC#CCOc1ccc(S(=O)(=O)N2CCN(C(=O)C(C)C)CCC2C(=O)NO)cc1 (stereo not drawn) | 23 | 95 | 142 | 9 |  |  |
